# Laboratory results published in patent US20150064109A1, “Quantified differentiation and identification of changes in tissue by enhancing differences in blood flow and metabolic activity” (priority 2013, published 2015).
# How the values were obtained:
# [1] = tested on: breast tissue; experiment: Study 2: B.E.S.T. (HDD-enhanced sestamibi) breast imaging, MCA compared with histopathology in 195 individuals; assay type: in vivo, human; settings: mean ± SD; for MCA quantitative counts, Cancer: breast cancer (n=15); for MCA quantitative counts, Atypia (Pre-cancerous): cellular atypia (15 individuals); for MCA quantitative counts, Inflammatory States: inflammatory changes (n=77); for MCA quantitative counts, Normal: normal breast tissue (n=88)
# From the text: Tissue samples were obtained either through ductoscopy, fine needle aspiration or open biopsy and were interpreted by pathologists without knowledge of the sestamibi image results. Results were interpreted as being normal, inflammatory (including trauma, injury, infection, fibrocystic disease, radiation exposure and subsequent injury), atypia (with increasing order of cellular change progressing from hyperplasia to metaplasia/atypia to ductal carcinoma in situ) and cancer.
# In a second study, one hundred and ninety five (195) (4 men, 191 women) individuals were studied using the enhanced (HDD) imaging approach. The study included four men having detectable breast lumps and 191 women, including 58 seeking additional information regarding breast disease concerns, and 133 with breast lumps and/or abnormal mammograms. The results of this study were also compared with biopsy data.
# (§1) Subjects arrive in a fasting state 15-30 minutes prior to the study. An 18-20 gauge intravenous catheter was placed either in the right antebrachium, or in the left antebrachium. The IV was placed in the contralateral arm if a specific breast was the breast in question. […] The catheter was flushed with 10-20 cc of normal saline immediately after the HDD had been given to assure introduction of all of the HDD into the venous system. […] Anterior images were obtained with the patient in a supine position.
# (§2) An example of the blue-green format is shown in FIG. 2a, juxtaposed with resting images.
# Following the image reconstruction and presentation of each breast image, the region of greatest maximal activity (MCA) was determined and “quantified.” MCA is a measure of detected radiation (gamma) emission acquired by the SPECT camera during the imaging process and reflects the amount of isotope present at any given time within the tissue of interest. See Fleming R M, Dooley W C, Boyd L B, Kubovy C, “Breast Enhanced Scintigraphy Testing (B.E.S.T.)—Increased accuracy in detecting breast cancer accomplished by combining breast and cardiac imaging,” 48th Annual Scientific Session of the Society of Nuclear Medicine, Toronto, Ontario, Canada, 26 Jun. 2001, the disclosure of which is incorporated herein by this reference. […] All readings and determination of MCA were determined for each breast prior to any knowledge of clinical, mammographic or pathologic information, which could in any way bias the results. These procedures were performed at a recognized Center of Excellence for Nuclear Procedures under the direct supervision of a physician Boarded in Nuclear Imaging.
# The outcomes of histopathologic specimens were compared with the MCA derived from sestamibi imaging. Descriptive statistical analysis of the MCAs were determined including mean±standard deviations and confidence intervals (CI) for the mean. Group comparisons were made using two-tailed t-tests to determine statistical differences defined as p-values of ≦0.05. Graphic representation of the means is shown for comparison purposes as well as raw data comparison for the histopathologic categories.
# [2] = tested on: breast tissue; experiment: Study 1: sestamibi breast imaging, maximal count activity (MCA) with Miraluma, SDD and HDD (B.E.S.T.) in ten women; assay type: in vivo, human; settings: for MCA counts, Cancer: breast cancer tissue; for MCA counts, Inflamatory States: inflammatory breast tissue; for tissue differentiation: outcome in words, referring to FIG. 3 and Table 1
# Procedure: Two sestamibi imaging studies were conducted. […] The results were also compared with biopsy data. All 10 women in the study had either an abnormality on mammography or a detectable lump on physical examination.
# Subjects undergoing breast imaging arrived in the fasting state 15-30 minutes prior to the study. […] The IV was placed in the contralateral arm if there is a specific question regarding a specific breast. Sestamibi was administered intravenously four minutes into the study followed by a 10-20 cc normal saline flush to assure delivery of the isotope into the venous system, with imaging of the breast beginning ten minutes into the study. A SPECT camera was positioned in a stationary (planar) position for each of the images.
# Breast imaging began with the patient placed in a prone position on top of a 6-inch foam pad designed to enhance the comfort of the patient while improving breast imaging. Each side of the 6-inch pad had breast inserts held in place by hook and loop-type adhesive strips, which were removed allowing each breast to be positioned through the openings in a dependent manner without breast compression. Planar breast imaging began with the BrQL breast (lateral view of breast in question or the right breast if neither breast was specifically suspected of having an abnormality), then the BrCL breast (lateral view of the breast contralateral to BrQL). Patients were then placed on their back for the anterior (BrAS) image of both breasts. Any areas of special concern, PO BrQ1 (posterior oblique view of 1st breast noted to have abnormal activity on initial views) and PO BrQ2 (posterior oblique view of the other breast if its activity is abnormal) were then imaged.
# All images were acquired while the patient was prone, except for the anterior (BrAS) image, which was obtained while the patient was supine.
# Breast image acquisition and reconstruction was performed using a Siemens orbiter Single Photon Emission Computed Tomography (SPECT) camera with 75 photomultiplier tubes (PMTs) and a 128 by 128 matrix, available from Siemens Medical Solutions, Malvern, Pa. The images were acquired with the camera head in a stationary (planar) position. The camera, computer and software providing quantification of maximal count activity (MCA) were supplied by NC Systems of Boulder, Colo. A low-energy high-resolution (LEHR) collimator was used providing a resolution of 3.4 mm.
# as §1, §2
# Following the image reconstruction and presentation of each breast image, the region of greatest maximal activity (MCA) was determined and “quantified.” MCA is a measure of detected radiation (gamma) emission acquired by the SPECT camera during the imaging process and reflects the amount of isotope present at any given time within the tissue of interest. See Fleming R M, Dooley W C, Boyd L B, Kubovy C, “Breast Enhanced Scintigraphy Testing (B.E.S.T.)—Increased accuracy in detecting breast cancer accomplished by combining breast and cardiac imaging,” 48th Annual Scientific Session of the Society of Nuclear Medicine, Toronto, Ontario, Canada, 26 Jun. 2001, the disclosure of which is incorporated herein by this reference. […] All readings and determination of MCA were determined for each breast prior to any knowledge of clinical, mammographic or pathologic information, which could in any way bias the results.
# [3] = tested on: mitochondria; settings: energy dependent manner; cited from earlier work
SMILES,"MCA quantitative counts, Cancer ([1]; listed as B.E.S.T. ©)","MCA quantitative counts, Cancer ([1]; listed as B.E.S.T.©)","MCA quantitative counts, Atypia (Pre-cancerous) ([1]; listed as B.E.S.T. ©)","MCA quantitative counts, Atypia (Pre-cancerous) ([1]; listed as B.E.S.T.©)","MCA quantitative counts, Inflammatory States ([1]; listed as B.E.S.T. ©)","MCA quantitative counts, Inflammatory States ([1]; listed as B.E.S.T.©)","MCA quantitative counts, Normal ([1]; listed as B.E.S.T. ©)","MCA quantitative counts, Normal ([1]; listed as B.E.S.T.©)","MCA counts, Cancer ([2]; mean ± SD, Study 1)","MCA counts, Cancer ([2]; mean ± SD, Study 1, listed as B.E.S.T.©)","MCA counts, Inflamatory States ([2]; mean ± SD, Study 1)","MCA counts, Normal ([2]; normal breast tissue, mean ± SD, sestamibi 25-30 mCi iv, Study 1)",tissue differentiation ([2]; listed as HDD),tissue differentiation [2],sestamibi taken up by mitochondria [3]
"OCCN(CCO)c1nc(N2CCCCC2)c2nc(N(CCO)CCO)nc(N3CCCCC3)c2n1 [HDD/B.E.S.T. ©, dipyridamole]",445.3 ± 83.3 counts,445.3±83.3 counts,307.7 ± 29.3 counts,307.7±29.3 counts,218.0 ± 40.3 counts,218.0±40.3 counts,145 ± 29.1 counts,145.0±29.1 counts,442.0 ± 5.7 counts,442.0±5.7 counts,228.8 ± 24.0 counts,125.5 ± 31.5 counts,statistically significant at differentiating tissue types,,
"OCCN(CCO)c1nc(N2CCCCC2)c2nc(N(CCO)CCO)nc(N3CCCCC3)c2n1 [SDD, dipyridamole]",,,,,,,,,285.8 ± 17.0 counts,,183.5 ± 19.0 counts,,,useless in tissue differentiation,
"[99Tc+].[C-]#[N+]CC(C)(C)OC.[C-]#[N+]CC(C)(C)OC.[C-]#[N+]CC(C)(C)OC.[C-]#[N+]CC(C)(C)OC.[C-]#[N+]CC(C)(C)OC.[C-]#[N+]CC(C)(C)OC [sestamibi, Technetium-99m hexakis 2-methoxyisobutylisonitrile]",,,,,,,,,,,,,,,over 90%
